# Experimental data as given in US4693992A, “Bacitracin-metal-polyether antibiotic complexes” (International Minerals & Chemical Corp., priority 1985, dated 1987).
# How the values were obtained:
# Eimeria tenella [1] = test: Anticoccidial activity in chickens inoculated with Eimeria tenella oocysts (Example 11); assay type: in vivo; details: for Incidence of Bloody Droppings / Morbidity: 4th-6th day; for Mortality: 4th-7th day
# Protocol: (§1) This example describes experimental testing of complexes of this invention for anticoccidial activity. Anticoccidial activities of test compounds were determined by administering the compounds (in feed) to chickens inoculated with active oocysts of Eimeria tenella. The test compounds, which are listed in Table 1 below, included four bacitracin-metal-polyether antibiotic complexes prepared according to the procedures described above. In addition, sodium lysocellin, regular bacitracin, sodium monensin, sodium lasolocid, and unmedicated inoculated and noninoculated controls were included for comparative purposes.
# (§2) The test animals were Hubbard White Mountain male chicken (broiler strain) that were 5 days old at the beginning of the test. Each experimental compound was administered in a chick starter diet (Table 2) at a level of 80 g/ton and 120 g/ton. At 7 days of age, chicks were individually weighed, banded, and started on their respective treatments. Each treatment was replicated three times with five birds per replicate for a total of 15 birds per group. The test period was 10 days.
# Seventy-two hours after the initiation of medication, birds were reweighed and orally inoculated with approximately 100,000 Eimeria tenella oocysts suspended in a 1 cc dose of saline. The following criteria were then evaluated over the next seven days: […]
# a. morbidity (4th-6th day) b. mortality (4th-7th day) c. incidence of bloody droppings (4th-6th day)
# [2] = Weight gain and feed utilization efficiency in chicks, 11 days (Example 13); assay type: in vivo, chicken; parameters: key to Average Weight: average weight in grams; details: .00275% in rye basal diet
# Protocol: (§3) This example describes experimetnal testing of complexes of the present invention as feed additives for improving weight gain or feed utilization efficiency in birds. Test animals were male meat-type chickens (Hubbard strain). Fluorescent room lights were on a 16 hours light/8 hours dark schedule. The chicks were allotted to the pens on the basis of weight classes, and chicks in the even numbered pens were wing banded. Group weights were obtained at the start and individual weights at the termination of the experiment. Chicks weighing between 55 and 65 grams were selected for the test. The test compounds were blended with a basal feed ration (shown in Table 2) at the indicated concentration. Birds fed […] and feed supplemented with zinc bacitracin (Baciferm® 50, International Minerals and Chemical Corp.) were used as controls. The test was continued for 11 days, after which individual weights, pen weight and feed consumption were recorded and analyzed.
# [3] = Weight gain and feed utilization in chicks, 12 days (Example 14); assay type: in vivo, chicken; details: .0066% in feed
# Protocol: as §3
# All of the bacitracin-metal-polyether antibiotic complexes tested produced statistically significant increases in gains compared to the unmedicated basal ration.
# The test involving test compounds 1 and 3-14 consisted of 5 replicates of 7 chicks and those involving test compound 2 consisted of 6 replicates of 7 chicks. The tests were continued for 12 days, after which individual weight gains and feed conusumption were recorded and analyzed.
# Eimeria tenella [4] = test: Anticoccidial activity in chickens inoculated with Eimeria tenella (Example 12); assay type: in vivo, chicken; details: for Cecal Bleeding / Gain/Bird Days 0-3 / Gain/Bird Days 4-10: regrouped part of Table 2
# Protocol: as §1, §2
# Seventy-two hours after the initiation of medication, birds were reweighed and orally inoculated with approximately 100,000 Eimeria tenella oocysts suspended in a 1 cc dose of saline. The following criteria were then evaluated over the next seven days:
# A satisfactory challenge was obtained with Eimeria tenella.
# [5] = 80 g/ton in feed, feed per gain
# [6] = 120 g/ton in feed, feed per gain
compound,measurement,setting,value
"CC[C@@]1([C@@H]2O[C@@H]([C@H]3O[C@@](O)(CO)[C@H](C)C[C@@H]3C)C[C@@H]2C)CC[C@H]([C@]2(C)CC[C@]3(C[C@H](O)[C@@H](C)[C@@H]([C@@H](C)[C@@H](OC)[C@H](C)C(=O)O)O3)O2)O1 [Monensin, sodium monensin, reference compound]",protection against cecal bleeding,Eimeria tenella [1]; level in feed not given,fair
same,tolerance by the birds,Eimeria tenella [1]; level in feed not given,not tolerated well
same,Incidence of Bloody Droppings,Eimeria tenella [1]; level in feed not given,Slight
same,Morbidity,Eimeria tenella [1]; level in feed not given,5/15
same,Mortality,Eimeria tenella [1]; level in feed not given,0/15
same,F/G Day 0-3,Eimeria tenella [1]; level in feed not given,1.81
same,"Gain, Grams Day 0-3",Eimeria tenella [1]; level in feed not given,53.2 Grams
same,F/G Day 4-10,Eimeria tenella [1]; level in feed not given,1.64
same,"Gain, Grams Day 4-10",Eimeria tenella [1]; level in feed not given,202.5 Grams
Bacitracin-Sodium-Lysocellin Complex [Example 5],Average Gain,[2]; 11 days,214 g
same,Gain/Feed Ratio,[2]; 11 days,63.1
same,Average Weight,[2]; Table 4,274.8
same,Gain/Feed,[2]; Table 4,63.1
same,Average Gain Index,[2]; unmedicated = 100,104.2
same,Gain/Feed Ratio Index,[2]; unmedicated = 100,99.0
same,Gain/Feed Data,[3]; 12 days,.595
same,Gains/gram Data,[3]; 12 days,212.4 gram
same,Gain/Feed Index Relative to #1,[3]; #1 = unmedicated,105.7
same,Gains Index Relative to #1,[3]; #1 = unmedicated,114.8
same,Gain/Feed Index Relative to #2,[3]; #2 = zinc bacitracin,99.8
same,Gains Index Relative to #2,[3]; #2 = zinc bacitracin,101.3
same,Morbidity,"Eimeria tenella [1]; 80 g/ton in feed, birds affected/birds in group",4/15
same,Mortality,"Eimeria tenella [1]; 80 g/ton in feed, birds dead/birds in group",0/15
same,"Gain, Grams Day 0-3",Eimeria tenella [1]; 80 g/ton in feed,56.1 Grams
same,"Gain, Grams Day 4-10",Eimeria tenella [1]; 80 g/ton in feed,219.9 Grams
same,F/G Day 0-3,Eimeria tenella [1]; [5],1.70
same,F/G Day 4-10,Eimeria tenella [1]; [5],1.62
same,Incidence of Bloody Droppings,Eimeria tenella [1]; 120 g/ton in feed,Moderate
same,Morbidity,"Eimeria tenella [1]; 120 g/ton in feed, birds affected/birds in group",1/15
same,Mortality,"Eimeria tenella [1]; 120 g/ton in feed, birds dead/birds in group",1/15
same,"Gain, Grams Day 0-3",Eimeria tenella [1]; 120 g/ton in feed,58.8 Grams
same,"Gain, Grams Day 4-10",Eimeria tenella [1]; 120 g/ton in feed,228.3 Grams
same,F/G Day 0-3,Eimeria tenella [1]; [6],1.72
same,F/G Day 4-10,Eimeria tenella [1]; [6],1.62
same,Cecal Bleeding,Eimeria tenella [4]; 14 g/ton Lasalocid (Approx.),Severe
same,Gain/Bird Days 0-3,Eimeria tenella [4]; 14 g/ton Lasalocid (Approx.),59.9
same,Gain/Bird Days 4-10,Eimeria tenella [4]; 14 g/ton Lasalocid (Approx.),147.7
same,anticoccidial activity (in words),Eimeria tenella [4]; 36 (0.30 of 120) grams per ton,fair anticoccidial activity
same,Cecal Bleeding,Eimeria tenella [4]; 36 g/ton Lasalocid (Approx.),Moderate
same,Gain/Bird Days 0-3,Eimeria tenella [4]; 36 g/ton Lasalocid (Approx.),58.6
same,Gain/Bird Days 4-10,Eimeria tenella [4]; 36 g/ton Lasalocid (Approx.),169.4
same,Incidence of Bloody Droppings,Eimeria tenella [4]; 80 g/ton in feed,Severe
same,Morbidity,Eimeria tenella [4]; 80 g/ton in feed,11/15
same,Mortality,Eimeria tenella [4]; 80 g/ton in feed,0/15
same,F/G Day 0-3,Eimeria tenella [4]; 80 g/ton in feed,1.68
same,Gain/Bird Grams Day 0-3,Eimeria tenella [4]; 80 g/ton in feed,59.9 Grams
same,F/G Day 4-10,Eimeria tenella [4]; 80 g/ton in feed,2.12
same,Gain/Bird Grams Day 4-10,Eimeria tenella [4]; 80 g/ton in feed,147.7 Grams
same,Cecal bleeding associated with E. tenella infections,Eimeria tenella [4]; 80 gram per ton,severe
same,Incidence of Bloody Droppings,Eimeria tenella [4]; 120 g/ton in feed,Moderate
same,Morbidity,Eimeria tenella [4]; 120 g/ton in feed,8/15
same,Mortality,Eimeria tenella [4]; 120 g/ton in feed,0/15
same,F/G Day 0-3,Eimeria tenella [4]; 120 g/ton in feed,1.65
same,Gain/Bird Grams Day 0-3,Eimeria tenella [4]; 120 g/ton in feed,58.6 Grams
same,F/G Day 4-10,Eimeria tenella [4]; 120 g/ton in feed,1.83
same,Gain/Bird Grams Day 4-10,Eimeria tenella [4]; 120 g/ton in feed,169.7 Grams
same,anticoccidial activity (in words),Eimeria tenella [4]; 120 grams per ton,good anticoccidial activity
